Measured values from US10149879B2 (priority 2014, dated 2018).

Legend:
Format in all cases: in vivo, rats
SOD = test: Attenuation of oxidative stress: SOD; set-up: SOD, Brain / SOD, Heart / SOD, Liver / SOD, Kidney: unit not given here; conditions: H.G. animals; standard drug
Description: (§1) Before utilizing the test drug for human consumption the pre-clinical safety and efficacy profile of single plant candidate extract as well as in combined form was conducted following standard norms. The biological property of test formulation was validated in streptozotocin (STZ) induced diabetes animal model which also helped in evaluation of vascular complications caused due to diabetes. The effect of test drug was assessed on glucose levels, insulin level, glycosylated hemoglobin, and pro-inflammatory cytokines, and the most important bio-marker neopterin including various neuro-psychological assessments. The mechanism based study clearly indicated the neopterin decreasing potential of test formulation which exerted neuro-protective activity, better glycemic control, anti-atherosclerotic, anti-inflammatory, anti-oxidant effects in STZ induced diabetes among the animals. Further, its therapeutic activity has also been validated in neurogenic dementia and other cognitive deficits associated with diabetes mellitus. Attenuation of Oxidative Stress Following Treatment with Test Formulation—Restriction of SOD

[1] = test system: SGOT, SGPT, ALP, ACP, LDH; test: Hepato-protective effect (SGOT, SGPT, ALP, ACP, LDH); conditions: H.G. animals; standard drug
Description: as §1, with “Hepato-Protective Effect” for “Attenuation”, “of” for “of Oxidative Stress Following Treatment with”, “Formulation” for “Formulation—Restriction of SOD”

TBARS = test: Attenuation of oxidative stress: TBARS formation; set-up: TBARS formation, Brain / TBARS formation, Heart / TBARS formation, Liver / TBARS formation, Kidney: unit not given here; conditions: H.G. animals; standard drug
Description: as §1, with “Formation—Reduction in TBARS Formation” for “Formulation—Restriction of SOD”

G-6-P = test: Regulation of key enzymes in gluconeogenesis: G-6-P; conditions: H.G. animals; standard drug
Description: as §1, with “mellitus.” for “mellitus. Attenuation of Oxidative Stress Following Treatment with Test Formulation—Restriction of SOD”

Glycogen = test: Restoration of glycogen in liver and skeletal muscle; conditions: H.G. animals; standard drug
Description: (§2) Before utilizing the test drug for human consumption the pre-clinical safety and efficacy profile of single plant candidate extract as well as in combined form was conducted following standard norms. […] The effect of test drug was assessed on glucose levels, insulin level, glycosylated hemoglobin, and pro-inflammatory cytokines, and the most important bio-marker neopterin including various neuro-psychological assessments.

[2] = test system: streptozotocin (STZ) induced diabetes animal model; test: Urine volume and glyceuira (Benedict reagent); set-up: key to Glyceuria: (+++) abundant; (++) moderate; (+) mild; (−) complete absence; conditions: H.G. animals; standard drug
Description: as §1, with “mellitus.” for “mellitus. Attenuation of Oxidative Stress Following Treatment with Test Formulation—Restriction of SOD”
Urine was collected from each group separately by using animal metabolic cage, volume of urine collected was measured and glucose executed in urine was detected by Benedict reagent. In which 1 ml of urine and 3 ml of B.R. are added and boiled for 5 minute. The change in color was observed as Red (+++), green coloration (++) yellow coloration (+) and unchanged (−).

Hemoglobin = test: Glycation of hemoglobin; conditions: H.G. animals; standard drug
Description: as §2, with “assessments. […] Aldose Reductase Activity and Glycation of Hemoglobin Following Test Formulation Treatment” for “assessments.”

Neopterin = Neopterin decreasing property in experimental diabetes; conditions: H.G. animals, standard drug
Description: as §1, with “mellitus.” for “mellitus. Attenuation of Oxidative Stress Following Treatment with Test Formulation—Restriction of SOD”

Adipocyte = test: Reduction in hypertrophy of adipocyte; conditions: H.G. animals; standard drug
Description: as §1, with “Reduction in hypertrophy” for “Attenuation”, “Adipocyte on Treated” for “Oxidative Stress Following Treatment”, “Formulation” for “Formulation—Restriction of SOD”

CN(C)C(=N)N=C(N)N [Metformin]
SOD, Brain (SOD): 19.83 ± 3.56 | SOD, Heart (SOD): 14.33 ± 5.13 | SOD, Kidney (SOD): 16.00 ± 2.37 | SOD, Liver (SOD): 15.33 ± 0.86 | SOD, Pancrease (SOD): 7.01 ± 0.46 | ACP [1]: 12.05 ± 0.68 U/L | ALP [1]: 142.00 ± 6.00 U/L | LDH [1]: 145.11 ± 15.00 U/L | SGOT [1]: 60.00 ± 5.00 U/L | SGPT [1]: 24.25 ± 2.12 U/L | TBARS formation, Brain (TBARS): 48.08 ± 3.42 | TBARS formation, Heart (TBARS): 62.33 ± 4.81 | TBARS formation, Kidney (TBARS): 56.74 ± 5.07 | TBARS formation, Liver (TBARS): 80.83 ± 9.17 | TBARS formation, Pancrease (TBARS): 83.17 ± 7.24 | G-6-P, Kidney (G-6-P): 41.85 ± 7.71 μm/min/mg of protein | G-6-P, Liver (G-6-P): 57.49 ± 8.17 μm/min/mg of protein | Glycogen content, Liver (Glycogen): 1095.03 ± 63.10 nM/Mg of Tissue | Glycogen content, Skeletal muscle (Glycogen): 86.98 ± 12.80 nM/Mg of Tissue | Glyceuria [2]: + | Urine volume [2]: 8.95 ± 1.70 mL | Glycated Hb (Hemoglobin): 0.44 ± 0.04 mg/g of Hb | Hb (Hemoglobin): 10.06 ± 0.06 g/dL | Neopterin (Neopterin; 7th day): 8.90 ± 1.87 nmol/L | Neopterin (Neopterin; 14th Day): 9.11 ± 1.39 nmol/L | Adipocyte cell area (Adipocyte): 146.24 ± 10.85 μm

CCc1ccc(CCOc2ccc(CC3SC(=O)NC3=O)cc2)nc1 (stereo not shown) [Pioglitazone]
SOD, Brain (SOD): 19.33 ± 3.66 | SOD, Heart (SOD): 15.83 ± 5.83 | SOD, Kidney (SOD): 16.67 ± 1.86 | SOD, Liver (SOD): 13.50 ± 1.76 | SOD, Pancrease (SOD): 6.91 ± 0.22 | ACP [1]: 11.95 ± 1.00 U/L | ALP [1]: 139.50 ± 3.15 U/L | LDH [1]: 160.00 ± 15.00 U/L | SGOT [1]: 72.00 ± 5.71 U/L | SGPT [1]: 27.00 ± 3.00 U/L | TBARS formation, Brain (TBARS): 52.66 ± 3.55 | TBARS formation, Heart (TBARS): 61.83 ± 4.52 | TBARS formation, Kidney (TBARS): 56.33 ± 7.93 | TBARS formation, Liver (TBARS): 82.50 ± 2.84 | TBARS formation, Pancrease (TBARS): 87.67 ± 7.41 | G-6-P, Kidney (G-6-P): 45.08 ± 4.76 μm/min/mg of protein | G-6-P, Liver (G-6-P): 68.56 ± 7.51 μm/min/mg of protein | Glycogen content, Liver (Glycogen): 975.00 ± 43.14 nM/Mg of Tissue | Glycogen content, Skeletal muscle (Glycogen): 42.02 ± 7.26 nM/Mg of Tissue | Glyceuria [2]: ++ | Urine volume [2]: 13.23 ± 1.18 mL | Glycated Hb (Hemoglobin): 0.53 ± 0.07 mg/g of Hb | Hb (Hemoglobin): 10.09 ± 1.85 g/dL | Neopterin (Neopterin; 7th day): 9.13 ± 2.10 nmol/L | Neopterin (Neopterin; 14th Day): 8.02 ± 2.01 nmol/L | Adipocyte cell area (Adipocyte): 136.31 ± 13.53 μm
